Measurements published in patent US7018987B1 (priority 1998, dated 2006).
In brackets after ≈: the same amount, converted by molar mass. Like-named read-outs stand apart in the source and are kept apart here.

How the values were obtained:
[1] = tested on: NCI-H460; format: cell-based, Human
[2] = tested on: FADU; format: cell-based, Human
[3] = tested on: Micrococcus luteus; experiment: Disk susceptibility testing, Micrococcus luteus; format: cell-based
[4] = tested on: SW1736; format: cell-based, Human
[5] = tested on: P388 lymphocytic leukemia; format: cell-based, Murine
[6] = tested on: BXPC-3; format: cell-based, Human
[7] = tested on: SK-N-SH; format: cell-based, Human
[8] = tested on: DU-145; format: cell-based, Human
[9] = tested on: Enterobacter cloacae; conditions: disk susceptibility
[10] = tested on: Staphylococcus aureus; conditions: disk susceptibility
[11] = tested on: Escherichia coli; conditions: disk susceptibility
[12] = tested on: Stenotrophomonas maltophilia; conditions: disk susceptibility
[13] = tested on: Streptococcus pneumoniae; conditions: disk susceptibility
[14] = tested on: eight bacteria and two fungi tested; experiment: Disk susceptibility testing, whole microbe panel; format: cell-based; conditions: disk susceptibility, bacteria and fungi tested
[15] = tested on: Neisseria gonorrhoeae; format: cell-based
[16] = tested on: Enterococcus faecalis; conditions: disk susceptibility
[17] = tested on: SK-Mel-3; format: cell-based, Human
[18] = tested on: full-panel NCl screen; conditions: read-out: mean panel GI50 concentration; cited from earlier work
[19] = tested on: tubulin; conditions: reported (Lin et al., 1988); cited from earlier work
[20] = tested on: Candida albicans; experiment: Disk susceptibility testing, Candida albicans; format: cell-based
[21] = tested on: Cryptococcus neoformans; experiment: Disk susceptibility testing, Cryptococcus neoformans; format: cell-based
[22] = Solubility in water; conditions: mg per 1 ml water at 25° C.
[23] = murine P-388 leukemia, 48 hours
[24] = Neisseria gonorrhoeae, disk susceptibility

COc1ccc(/C=C/c2cc(OC)c(OC)c(OC)c2)cc1O [Compound 4a, (E)-combretastatin A-4]
GI50 Lung-NSC NCI-H460 ([1]; NCI-H460, 48 hours): 0.038 µg/mL (≈ 0.12 µM) | GI50 Pharynx FADU ([2]; FADU, 48 hours): 0.040 µg/mL (≈ 0.126 µM) | Minimum inhibitory amount per disk [3]: 25–50 μg/disk | GI50 Thyroid SW1736 ([4]; SW1736, 48 hours): 0.080 µg/mL (≈ 0.253 µM) | ED50 P-388 [5, 23]: 0.280 µg/mL (≈ 0.885 µM) | GI50 Pancreas BXPC-3 ([6]; BXPC-3, 48 hours): 3.9 µg/mL (≈ 12.3 µM) | GI50 Neuroblast SK-N-SH ([7]; SK-N-SH, 48 hours): 0.029 µg/mL (≈ 0.0917 µM) | GI50 Prostate DU-145 ([8]; DU-145, 48 hours): 0.037 µg/mL (≈ 0.117 µM)

CN(C)C1C(=O)C(C(N)=O)=C(O)C2(O)C(=O)C3=C(O)c4c(O)cccc4C(C)(O)C3CC12.COc1ccc(C=Cc2cc(OC)c(OC)c(OC)c2)cc1OP(=O)(O)O (stereo not shown) [Compound 5r, Tetracycline combretastatin A-4 3-O-phosphate]
Minimum inhibitory concentration [9]: 3.12–6.25 μg/disk | Minimum inhibitory concentration [10]: 0.195–0.39 μg/disk | GI50 Lung-NSC NCI-H460 ([1]; NCI-H460, 48 hours): 0.0046 µg/mL | Minimum inhibitory concentration [11]: 3.12–6.25 μg/disk | GI50 Pharynx FADU ([2]; FADU, 48 hours): 0.0055 µg/mL | Minimum inhibitory amount per disk [3]: 0.78–1.56 μg/disk | GI50 Thyroid SW1736 ([4]; SW1736, 48 hours): 0.012 µg/mL | ED50 P-388 [5, 23]: 0.037 µg/mL | Minimum inhibitory concentration [12]: 6.25–12.5 μg/disk | Minimum inhibitory concentration [13]: 0.195–0.39 μg/disk | GI50 Pancreas BXPC-3 ([6]; BXPC-3, 48 hours): 0.57 µg/mL | GI50 Neuroblast SK-N-SH ([7]; SK-N-SH, 48 hours): 0.0032 µg/mL | antimicrobial growth inhibition (in words) [14]: inhibited the growth of all Gram-negative and Gram-positive bacteria tested | Minimum inhibitory amount per disk [15, 24]: 3.12–6.25 μg/disk | Minimum inhibitory concentration [16]: 25–50 μg/disk | GI50 Prostate DU-145 ([8]; DU-145, 48 hours): 0.058 µg/mL

Combretastatin A-4 [Compound 1a, reference compound]
GI50 Lung-NSC NCI-H460 [1]: 0.00056 µg/mL | GI50 Pharynx FADU [2]: 0.00065 µg/mL | GI50 Melanoma SK-Mel-3 [17]: 0.0002 µg/mL | GI50 Thyroid SW1736 [4]: 0.00071 µg/mL | ED50 P-388 [5]: 0.00266 µg/mL | GI50 Pancreas BXPC-3 [6]: >0.1 µg/mL | GI50 Neuroblast SK-N-SH [7]: 0.00026 µg/mL | GI50 [18]: 6.61 nM | inhibition at the colchicine binding site of tubulin [19]: 97% | Minimum inhibitory amount per disk [15]: 25–50 μg/disk | growth inhibition of Neisseria gonorrhoeae (in words) [15]: inhibited growth | GI50 Prostate DU-145 [8]: 0.00076 µg/mL

Manganese combretastatin A-4 3′-O-phosphate [Compound 5e]
Minimum inhibitory concentration [20]: 25–50 μg/disk | GI50 Lung-NSC NCI-H460 ([1]; NCI-H460, 48 hours): 0.0015 µg/mL | GI50 Pharynx FADU ([2]; FADU, 48 hours): 0.00091 µg/mL | GI50 Melanoma SK-Mel-3 ([17]; SK-Mel-3, 48 hours): 0.0036 µg/mL | GI50 Thyroid SW1736 ([4]; SW1736, 48 hours): 14.7 µg/mL | ED50 P-388 [5, 23]: 0.016 µg/mL | GI50 Pancreas BXPC-3 ([6]; BXPC-3, 48 hours): 0.20 µg/mL | Minimum inhibitory concentration [21]: 12.5–25 μg/disk | GI50 Neuroblast SK-N-SH ([7]; SK-N-SH, 48 hours): 0.014 µg/mL | antimicrobial growth inhibition (in words) [14]: inhibitory to opportunistic fungi | Minimum inhibitory amount per disk [15, 24]: 6.25–12.5 μg/disk | Solubility [22]: 3000 µg/mL | GI50 Prostate DU-145 ([8]; DU-145, 48 hours): <0.001 µg/mL
